{
  "source": "patent US7259004B1",
  "about": "“Endophytic streptomycetes from higher plants with biological activity” (Montana State University, priority 2002, dated 2007)",
  "key": {"[1]": {"tested_on": "Staphylococccus simulans 11631", "assay": "microbroth dilution MIC", "assay_type": "cell-based, Staphylococcus simulans", "conditions": "Staphylococcus simulans, ATCC11631; Table 15; read-out: MIC Staphylococcus simulans ATCC 11631"}, "Bacillus anthracis 14578": {"tested_on": "Bacillus anthracis 14578", "assay": "microbe, parasite or virus in culture", "assay_type": "cell-based", "conditions": "Bacillus anthracis, 14578, read-out: MIC Bacillus anthracis 14578"}, "[2]": {"tested_on": "Enterococcus faecalis ATCC 51299 (VRE)", "assay": "microbroth dilution MIC", "assay_type": "cell-based", "conditions": "Enterococcus faecalis; Table 15"}, "[3]": {"tested_on": "Streptococcus pneumoniae 49619", "assay": "microbroth dilution MIC", "assay_type": "cell-based", "conditions": "Streptococcus pneumoniae, ATCC49619; Table 15; read-out: MIC Streptococcus pneumoniae ATCC 49619"}, "[4]": {"tested_on": "Listeria monocytogenes 19114", "assay": "microbroth dilution MIC", "assay_type": "cell-based", "conditions": "Listeria monocytogenes, ATCC19114; Table 15; read-out: MIC Listeria monocytogenes ATCC 19114"}, "Bacillus anthracis 62-8": {"tested_on": "Bacillus anthracis 62-8", "assay": "microbe, parasite or virus in culture", "assay_type": "cell-based", "conditions": "Bacillus anthracis, 628, read-out: MIC Bacillus anthracis 62-8"}, "B. subtilis 1A757": {"tested_on": "B. subtilis 1A757", "assay": "microbe, parasite or virus in culture", "assay_type": "cell-based, Bacillus subtilis", "conditions": "for MIC: Bacillus subtilis, read-out: MIC B. subtilis 1A757"}, "[5]": {"assay": "solubility in acetonitrile"}, "E. faecalis 29212": {"tested_on": "E. faecalis 29212", "assay": "microbroth dilution MIC", "assay_type": "cell-based, Enterococcus faecalis", "conditions": "Enterococcus faecalis, ATCC29212; Table 15; read-out: MIC Enterococcus faecalis ATCC 29212"}, "[6]": {"tested_on": "Staphylococccus aureus 27734", "assay": "microbroth dilution MIC", "assay_type": "cell-based, Staphylococcus aureus", "conditions": "Staphylococcus aureus, ATCC27734; Table 15; read-out: MIC Staphylococcus aureus ATCC 27734"}, "E. faecium 49624": {"tested_on": "E. faecium 49624", "assay": "microbroth dilution MIC", "assay_type": "cell-based, Enterococcus faecium", "conditions": "Enterococcus faecium, ATCC49624; Table 15; read-out: MIC Enterococcus faecium ATCC 49624"}, "S. aureus 29213": {"tested_on": "S. aureus 29213", "assay": "microbroth dilution MIC", "assay_type": "cell-based, Staphylococcus aureus", "conditions": "Staphylococcus aureus, ATCC29213; Table 15; read-out: MIC Staphylococcus aureus ATCC 29213"}, "[7]": {"tested_on": "Staphylococcus aureus GISA, ATCC 700787", "assay": "microbroth dilution MIC", "assay_type": "cell-based", "conditions": "ATCC700787, Table 15, read-out: MIC Staphylococcus aureus GISA, ATCC 700787"}, "[8]": {"tested_on": "Staphylococcus aureus ATCC 33591 (MRSA)", "assay": "microbroth dilution MIC", "assay_type": "cell-based", "conditions": "Staphylococcus aureus; Table 15"}, "[9]": {"tested_on": "Protein synthesis in Bacillus subtilis", "assay": "macromolecular synthesis whole cell assay, [3H]amino acid mixture incorporation", "assay_type": "cell-based", "conditions": "1×MIC"}, "S. epidermis 12228": {"tested_on": "S. epidermis 12228", "assay": "microbroth dilution MIC", "assay_type": "cell-based, Staphylococcus epidermidis", "conditions": "Staphylococcus epidermidis, ATCC12228; Table 15; read-out: MIC Staphylococcus epidermidis ATCC 12228"}, "[10]": {"tested_on": "Shigella dysenteriae ATCC 11835", "assay": "microbroth dilution MIC", "assay_type": "cell-based", "conditions": "ATCC11835, Table 15, read-out: MIC Shigella dysenteriae ATCC 11835"}, "[11]": {"tested_on": "Bacillus anthracis 40/BA 100", "assay": "microbe, parasite or virus in culture", "assay_type": "cell-based", "conditions": "40/BA100, read-out: MIC Bacillus anthracis 40/BA 100"}, "[12]": {"tested_on": "Plasmodium falciparum strain CSC-1 (Honduras)", "assay": "antimalarial assay, 3H-phenylalanine radiobioassay in human red blood cells", "conditions": "Plasmodium falciparum, Erythrocyte, read-out: IC50 Plasmodium falciparum"}, "[13]": {"tested_on": "Streptococcus pneumoniae ATCC 70674", "assay": "microbroth dilution MIC", "assay_type": "cell-based", "conditions": "ATCC70674, Table 15, read-out: MIC Streptococcus pneumoniae ATCC 70674"}, "[14]": {"tested_on": "Human Primary Mammary Epithelial HMEC", "assay": "CellTiter 96 Aqueous Non-Radioactive Cell Proliferation Assay", "assay_type": "cell-based", "conditions": "Homo sapiens, HMEC, read-out: IC50 Human Primary Mammary Epithelial HMEC, Table 12"}, "[15]": {"tested_on": "Human Lung Cancer Epithelial A549", "assay": "CellTiter 96 Aqueous Non-Radioactive Cell Proliferation Assay", "assay_type": "cell-based", "conditions": "Homo sapiens, A549, read-out: IC50 Human Lung Cancer Epithelial A549", "method_in_brief": "(§1)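 Cells rested 5 h at 37° C after seeding, then treated in triplicate with two-fold serial dilutions of compound. A-549 and ME-180 were exposed for 48 h. After 1–4 h MTS reagent at 37° C, OD490 was read and corrected by subtracting medium-only blanks.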"}, "[16]": {"tested_on": "Human Cervical Cancer Epithelial ME180", "assay": "CellTiter 96 Aqueous Non-Radioactive Cell Proliferation Assay", "assay_type": "cell-based", "conditions": "Homo sapiens, ME-180, read-out: IC50 Human Cervical Cancer Epthelial ME180", "method_in_brief": "as §1"}, "[17]": {"tested_on": "Human Breast Cancer Epithelial BT-20", "assay": "CellTiter 96 Aqueous Non-Radioactive Cell Proliferation Assay", "assay_type": "cell-based", "conditions": "for IC50: Homo sapiens"}, "[18]": {"assay": "CellTiter 96 Aqueous Non-Radioactive Cell Proliferation Assay", "assay_type": "cell-based, human", "conditions": "human, read-out: IC50 cytotoxicity, human mammary epithelial cells"}, "S. aureus ATCC 6583P": {"tested_on": "S. aureus ATCC 6583P", "assay": "MIC with and without double stranded DNA", "assay_type": "cell-based, Staphylococcus aureus", "conditions": "Staphylococcus aureus, ATCC6583P, read-out: MIC S. aureus ATCC 6583P"}, "[19]": {"tested_on": "Listeria monocytogenes 19115", "assay": "microbroth dilution MIC", "assay_type": "cell-based", "conditions": "Listeria monocytogenes, ATCC19115; Table 15; read-out: MIC Listeria monocytogenes ATCC 19115"}, "[20]": {"tested_on": "Streptococcus pneumoniae ATCC 70676", "assay": "microbroth dilution MIC", "assay_type": "cell-based", "conditions": "ATCC70676, Table 15, read-out: MIC Streptococcus pneumoniae ATCC 70676"}, "Bacillus anthracis 28": {"tested_on": "Bacillus anthracis 28", "assay": "microbe, parasite or virus in culture", "assay_type": "cell-based", "conditions": "Bacillus anthracis, 28, read-out: MIC Bacillus anthracis 28"}, "[21]": {"tested_on": "RNA synthesis in Bacillus subtilis", "assay": "macromolecular synthesis whole cell assay, [3H]uridine incorporation", "assay_type": "cell-based", "conditions": "1×MIC"}, "[22]": {"tested_on": "DNA synthesis in Bacillus subtilis", "assay": "macromolecular synthesis whole cell assay, [3H]thymidine incorporation", "assay_type": "cell-based", "conditions": "5 min; 1×MIC"}},
  "note": "Where two headings read alike, the source gives them in different places.",
  "data": [
    {"smiles": "CS[C@H]1SC[C@H]2C(=O)N(C)[C@@H](C(C)C)C(=O)OC[C@@H](NC(=O)c3cnc4ccccc4n3)C(=O)N[C@@H](C)C(=O)N(C)[C@@H]1C(=O)N(C)[C@@H](C(C)C)C(=O)OC[C@@H](NC(=O)c1cnc3ccccc3n1)C(=O)N[C@@H](C)C(=O)N2C", "note": "[Echinomycin, reference compound]", "values": [
      {"measurement": "MIC", "setting": "[1]", "result": 0.25, "unit": "µg/mL"},
      {"measurement": "MIC", "setting": "Bacillus anthracis 14578", "result": 1.99, "unit": "µg/mL"},
      {"measurement": "MIC", "setting": "[2]", "result": 0.125, "unit": "µg/mL"},
      {"measurement": "MIC", "setting": "[3]", "result": "< 0.0325", "unit": "µg/mL"},
      {"measurement": "MIC", "setting": "[4]", "result": 0.5, "unit": "µg/mL"},
      {"measurement": "MIC", "setting": "Bacillus anthracis 62-8", "result": 1.4, "unit": "µg/mL"},
      {"measurement": "1×MIC against Bacillus subtilis", "setting": "B. subtilis 1A757", "result": 0.25, "unit": "micrograms/ml"},
      {"measurement": "MIC", "setting": "B. subtilis 1A757; 1A757, DNA +, 20 micrograms per well of sheared salmon sperm DNA", "result": 8, "unit": "µg/mL"},
      {"measurement": "MIC", "setting": "B. subtilis 1A757; 1A757, DNA −", "result": 0.125, "unit": "µg/mL"},
      {"measurement": "Solubility in acetonitrile", "setting": "[5]", "result": "sparingly soluble"},
      {"measurement": "MIC", "setting": "E. faecalis 29212", "result": 0.125, "unit": "µg/mL"},
      {"measurement": "MIC", "setting": "[6]", "result": 0.25, "unit": "µg/mL"},
      {"measurement": "MIC", "setting": "E. faecium 49624", "result": "≤ 0.062", "unit": "µg/mL"},
      {"measurement": "MIC", "setting": "S. aureus 29213", "result": 0.5, "unit": "µg/mL"},
      {"measurement": "MIC", "setting": "[7]", "result": 1, "unit": "µg/mL"},
      {"measurement": "MIC", "setting": "[8]", "result": 0.5, "unit": "µg/mL"},
      {"measurement": "% [3H]amino acid mixture (Protein synthesis) incorporation of that of the untreated culture", "setting": "[9]; 5 min", "result": 73, "unit": "%"},
      {"measurement": "% [3H]amino acid mixture (Protein synthesis) incorporation of that of the untreated culture", "setting": "[9]; 10 min", "result": 62, "unit": "%"},
      {"measurement": "MIC", "setting": "S. epidermis 12228", "result": 0.25, "unit": "µg/mL"},
      {"measurement": "MIC", "setting": "[10]", "result": 8, "unit": "µg/mL"},
      {"measurement": "MIC", "setting": "[11]", "result": 1.4, "unit": "µg/mL"},
      {"measurement": "IC50", "setting": "[12]", "result": "0.00408 ± 0.0001", "unit": "µg/mL"},
      {"measurement": "MIC", "setting": "[13]", "result": "< 0.0325", "unit": "µg/mL"},
      {"measurement": "IC50", "setting": "[14]", "result": 0.0108, "unit": "µg/mL"},
      {"measurement": "IC50", "setting": "[15]", "result": 0.145, "unit": "µg/mL"},
      {"measurement": "IC50", "setting": "[16]", "result": 0.023, "unit": "µg/mL"},
      {"measurement": "IC50", "setting": "[17]; BT-20, read-out: IC50 Human Breast Cancer Eipthelial BT-20, Table 12", "result": 0.0048, "unit": "µg/mL"},
      {"measurement": "IC50", "setting": "[17]; BT-20, read-out: IC50 human breast cancer cell line BT 20, text of Examples 15, 18, 19", "result": 0.0048, "unit": "µg/mL"},
      {"measurement": "IC50 human breast cancer cell line BT 20", "setting": "[17]; text of Examples 15, 18, 19, listed as echnimonycin", "result": 0.0065, "unit": "µg/mL"},
      {"measurement": "IC50 at 48 h", "setting": "[18]; Example 15", "result": "0.0108 ± 0.0011", "unit": "µg/mL"},
      {"measurement": "IC50 at 48 h", "setting": "[18]; text of Examples 18, 19", "result": 4.8, "unit": "µg/mL"},
      {"measurement": "MIC", "setting": "S. aureus ATCC 6583P; DNA +, 20 micrograms per well of sheared salmon sperm DNA", "result": 16, "unit": "µg/mL"},
      {"measurement": "MIC", "setting": "S. aureus ATCC 6583P; DNA −", "result": 0.5, "unit": "µg/mL"},
      {"measurement": "MIC", "setting": "[19]", "result": 0.25, "unit": "µg/mL"},
      {"measurement": "MIC", "setting": "[20]", "result": "< 0.0325", "unit": "µg/mL"},
      {"measurement": "MIC", "setting": "Bacillus anthracis 28", "result": 2.4, "unit": "µg/mL"},
      {"measurement": "% [3H]uridine (RNA synthesis) incorporation of that of the untreated culture", "setting": "[21]; 5 min", "result": 41, "unit": "%"},
      {"measurement": "% [3H]uridine (RNA synthesis) incorporation of that of the untreated culture", "setting": "[21]; 10 min", "result": 37, "unit": "%"},
      {"measurement": "% [3H]thymidine (DNA synthesis) incorporation of that of the untreated culture", "setting": "[22]", "result": 1, "unit": "%"}
    ]}
  ]
}
